From US20250066388A1, “1,3,4,7-TETRAHYDRO-2H-PYRROLO[3',2':5,6]PYRIDO[2,3-B][1,4]OXAZEPINE BCL-2 INHIBITORS” (AbbVie Inc., priority 2022, published 2025)

Assays:
[1] = biological target: Bcl-xL protein (Homo sapiens (Human), UniProt Q07817); experiment: TR-FRET binding assay, Bcl-xL; settings: F-Bak peptide probe
Experimental: (§1) Determination of the utility of compounds having Formula (I) or Formula (II) as binders to and inhibitors of anti-apoptotic Bcl-2 proteins was performed using the Time Resolved-Fluorescence Resonance Energy Transfer (TR-FRET) Assay. Tb-anti-GST antibody was purchased from Invitrogen (Catalog No. PV4216).
A human Bcl-xL encoding sequence was cloned into a pET41A vector. The protein was expressed with E. coli. BL21(DE3)-T1R strain in OETB autoinduction medium at 30° C. for 25 hours. The cell pellets were resuspended in lysis buffer (50 mM Tris, 140 mM NaCl, 1 mM DTT, 10% Glycerol, 0.1% Triton X-100, pH 7.5) and lysed with Microfluidizer. The Bcl-xL protein in clarified cell-lysate was purified with GST affinity chromatography. The eluate was dialyzed in the storage buffer (1×PBS, 10% Glycerol, 2 mM DTT, 1 mM Sodium Azide, pH 7.4) and stored at −80° C.
(§2) […] of a protein (Bcl-2 or Bcl-xL)/probe/antibody mixture pre-equilibrated for one hour in assay buffer was added to each well at final concentrations listed in Table 6 below.
(§3) The samples were then mixed on a shaker for 1 minute and equilibrated for an additional 3 hours at room temperature. For each assay plate, a probe/antibody and protein/antibody/probe mixture were included as a negative and a positive control, respectively. Fluorescence was measured on the Envision (Perkin Elmer) using a 340/35 nm excitation filter and 520/525 (F-Bak) and 495/510 nm (Tb-labeled anti-GST antibody) emission filters. Inhibition constants (Ki) were determined using Wang's equation (Wang FEBS Lett. 1995, 360, 111-114). The TR-FRET assay can be performed in the presence of varying concentrations of human serum (HS) to determine apparent half maximal inhibitory concentration (IC50) after HS protein binding.
(§4) Inhibition constants were determined using Wang's equation (Wang FEBS Lett. 1995, 360:111-4).

[2] = biological target: Bcl-2 protein (Homo sapiens (Human), UniProt P10415); experiment: TR-FRET binding assay, Bcl-2; settings: F-Bak peptide probe, GST-Bcl-2
Chain of Bcl-2 protein (P10415 other isoform, or with tags, fused parts or gaps): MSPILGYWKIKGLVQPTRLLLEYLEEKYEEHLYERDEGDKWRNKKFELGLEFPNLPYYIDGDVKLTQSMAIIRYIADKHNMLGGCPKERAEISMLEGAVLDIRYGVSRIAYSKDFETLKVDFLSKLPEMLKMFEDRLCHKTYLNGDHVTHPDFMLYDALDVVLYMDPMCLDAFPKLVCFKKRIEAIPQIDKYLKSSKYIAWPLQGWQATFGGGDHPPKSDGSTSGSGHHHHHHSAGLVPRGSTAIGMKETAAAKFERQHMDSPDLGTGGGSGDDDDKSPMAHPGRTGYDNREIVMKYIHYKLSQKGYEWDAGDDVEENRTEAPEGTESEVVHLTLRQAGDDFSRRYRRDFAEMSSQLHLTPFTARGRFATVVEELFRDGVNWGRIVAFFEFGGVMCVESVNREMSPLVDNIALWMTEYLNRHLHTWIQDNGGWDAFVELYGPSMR
Experimental: as §1
A Bcl-2 human encoding sequence was cloned into a pET41A vector (Novagen). The protein was expressed with E. coli. BL21(DE3)-T1R strain in OETB autoinduction medium at 30° C. for 25 hours. The cell pellets were resuspended in lysis buffer (50 mM Tris, 140 mM NaCl, 1 mM DTT, 10% Glycerol, 2 mM MgCl2, pH 7.3) and lysed with Microfluidizer. The Bcl-2 protein in clarified cell-lysate was purified with affinity chromatography (GST and Ni-NTA). The eluate was loaded onto a Superdex 75 column and further purified with a Q Sepharose column. The protein was purified on a phenyl hydrophobic interaction column and dialyzed in the storage buffer (50 mM Tris, 50 mM NaCl, 2 mM DTT, pH 7.5) and stored at −80° C.
as §2, §3, §4

Chain of Bcl-xL protein (Q07817 other isoform, or with tags, fused parts or gaps): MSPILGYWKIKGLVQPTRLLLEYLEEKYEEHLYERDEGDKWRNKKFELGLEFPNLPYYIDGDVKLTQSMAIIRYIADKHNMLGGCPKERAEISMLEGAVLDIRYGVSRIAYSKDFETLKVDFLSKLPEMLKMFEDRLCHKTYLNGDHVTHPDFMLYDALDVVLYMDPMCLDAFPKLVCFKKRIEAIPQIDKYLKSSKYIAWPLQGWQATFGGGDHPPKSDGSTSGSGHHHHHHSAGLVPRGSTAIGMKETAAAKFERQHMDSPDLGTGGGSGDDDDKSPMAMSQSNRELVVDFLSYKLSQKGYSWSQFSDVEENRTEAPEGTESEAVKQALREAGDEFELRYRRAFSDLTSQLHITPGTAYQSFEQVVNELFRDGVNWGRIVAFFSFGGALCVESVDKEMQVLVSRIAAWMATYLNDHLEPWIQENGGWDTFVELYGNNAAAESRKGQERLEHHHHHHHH

CC1(C)CC(c2ccc(Cl)cc2)=C2CN3CCN(c4ccc(C(=O)NS(=O)(=O)c5cnc(OCC6(F)CCN(C7COC7)CC6)c(Cl)c5)c(N5CCCOc6nc7[nH]ccc7cc65)c4)C[C@H]3COCCCO[C@@H]2C1 [Example 4, N-((5-chloro-6-((4-fluoro-1-(oxetan-3-yl)piperidin-4-yl)methoxy)pyridin-3-yl)sulfonyl)-4-((4aS,10aR)-14-(4-chlorophenyl)-12,12-dimethyl-1,2,4a,5,8,9,10a,11,13,15-decahydro-7H,12H-benzo[f]pyrazino[2,1-c][1,8]dioxa[4]azacycloundecin-3(4H)-yl)-2-(3,4-dihydro-2H-pyrrolo[3′,2′:5,6]pyrido[2,3-b][1,4]oxazepin-1(7H)-yl)benzamide]
Ki [1]: 18.8 nM
Ki [2]: 0.28 nM

CO[C@H]1CC[C@H](CNc2ccc(S(=O)(=O)NC(=O)c3ccc(N4CCN5CC6=C(c7ccc(Cl)cc7)CC(C)(C)C[C@H]6OCCCOC[C@@H]5C4)cc3N3CCCOc4nc5[nH]ccc5cc43)cc2[N+](=O)[O-])CC1 [Example 5, 4-((4aS,10aR)-14-(4-chlorophenyl)-12,12-dimethyl-1,2,4a,5,8,9,10a,11,13,15-decahydro-7H,12H-benzo[f]pyrazino[2,1-c][1,8]dioxa[4]azacycloundecin-3(4H)-yl)-2-(3,4-dihydro-2H-pyrrolo[3′,2′:5,6]pyrido[2,3-b][1,4]oxazepin-1(7H)-yl)-N-((4-((((1r,4r)-4-methoxycyclohexyl)methyl)amino)-3-nitrophenyl)sulfonyl)benzamide]
Ki [1]: 20 nM
Ki [2]: 0.149 nM

CC1(C)CC(c2ccc(Cl)cc2)=C2CN3CCN(c4ccc(C(=O)NS(=O)(=O)c5cnc(OCC6(F)CCOCC6)c(Cl)c5)c(N5CCCOc6nc7[nH]ccc7cc65)c4)C[C@H]3COCCCO[C@@H]2C1 [Example 7, N-((5-chloro-6-((4-fluorotetrahydro-2H-pyran-4-yl)methoxy)pyridin-3-yl)sulfonyl)-4-((4aS,10aR)-14-(4-chlorophenyl)-12,12-dimethyl-1,2,4a,5,8,9,10a,11,13,15-decahydro-7H,12H-benzo[f]pyrazino[2,1-c][1,8]dioxa[4]azacycloundecin-3(4H)-yl)-2-(3,4-dihydro-2H-pyrrolo[3′,2′:5,6]pyrido[2,3-b][1,4]oxazepin-1(7H)-yl)benzamide]
Ki [1]: > 661 nM
Ki [2]: 0.0503 nM

CC1(C)CC(c2ccc(Cl)cc2)=C2CN3CCN(c4ccc(C(=O)NS(=O)(=O)c5ccc(NC[C@H]6C[C@@](O)(CF)C6)c([N+](=O)[O-])c5)c(N5CCCOc6nc7[nH]ccc7cc65)c4)C[C@H]3COCCCO[C@@H]2C1 [Example 8, 4-((4aS,10aR)-14-(4-chlorophenyl)-12,12-dimethyl-1,2,4a,5,8,9,10a,11,13,15-decahydro-7H,12H-benzo[f]pyrazino[2,1-c][1,8]dioxa[4]azacycloundecin-3(4H)-yl)-2-(3,4-dihydro-2H-pyrrolo[3′,2′:5,6]pyrido[2,3-b][1,4]oxazepin-1(7H)-yl)-N-((4-((((1r,3r)-3-(fluoromethyl)-3-hydroxycyclobutyl)methyl)amino)-3-nitrophenyl)sulfonyl)benzamide]
Ki [1]: 0.125 nM
Ki [2]: 0.448 nM

CC1(C)CC(c2ccc(Cl)cc2)=C2CN3CCN(c4ccc(C(=O)NS(=O)(=O)c5ccc(OCC6(F)CCN(C7COC7)CC6)c(Cl)c5)c(N5CCCOc6nc7[nH]ccc7cc65)c4)C[C@H]3COCCCO[C@@H]2C1 [Example 9, N-(3-chloro-4-{[4-fluoro-1-(oxetan-3-yl)piperidin-4-yl]methoxy}benzene-1-sulfonyl)-4-[(4aS,10aR)-14-(4-chlorophenyl)-12,12-dimethyl-1,2,4a,5,8,9,11,12,13,15-decahydro-7H,10aH-pyrazino[2,1-g][1,5,8]benzodioxazacycloundecin-3(4H)-yl]-2-(3,4-dihydro-2H-pyrrolo[3′,2′:5,6]pyrido[2,3-b][1,4]oxazepin-1(7H)-yl)benzamide]
Ki [1]: 20.6 nM
Ki [2]: 0.267 nM

CC1(C)CC(c2ccc(Cl)cc2)=C2CN3CCN(c4ccc(C(=O)NS(=O)(=O)c5cnc(OC[C@]6(F)CC[C@@H](N7CCOCC7)CC6)c(Cl)c5)c(N5CCCOc6nc7[nH]ccc7cc65)c4)C[C@H]3COCCCO[C@@H]2C1 [Example 10, N-((5-chloro-6-(((1s,4s)-1-fluoro-4-morpholinocyclohexyl)methoxy)pyridin-3-yl)sulfonyl)-4-((4aS,10aR)-14-(4-chlorophenyl)-12,12-dimethyl-1,2,4a,5,8,9,10a,11,13,15-decahydro-7H,12H-benzo[f]pyrazino[2,1-c][1,8]dioxa[4]azacycloundecin-3(4H)-yl)-2-(3,4-dihydro-2H-pyrrolo[3′,2′:5,6]pyrido[2,3-b][1,4]oxazepin-1(7H)-yl)benzamide]
Ki [1]: 5.91 nM
Ki [2]: 0.66 nM

CC1(C)CC(c2ccc(Cl)cc2)=C2CN3CCN(c4ccc(C(=O)NS(=O)(=O)c5cnc(OC[C@]6(F)CC[C@H](N7CCOCC7)CC6)c(Cl)c5)c(N5CCCOc6nc7[nH]ccc7cc65)c4)C[C@H]3COCCCO[C@@H]2C1 [Example 11, N-((5-chloro-6-(((1r,4r)-1-fluoro-4-morpholinocyclohexyl)methoxy)pyridin-3-yl)sulfonyl)-4-((4aS,10aR)-14-(4-chlorophenyl)-12,12-dimethyl-1,2,4a,5,8,9,10a,11,13,15-decahydro-7H,12H-benzo[f]pyrazino[2,1-c][1,8]dioxa[4]azacycloundecin-3(4H)-yl)-2-(3,4-dihydro-2H-pyrrolo[3′,2′:5,6]pyrido[2,3-b][1,4]oxazepin-1(7H)-yl)benzamide]
Ki [1]: 17.3 nM
Ki [2]: 0.936 nM

CO[C@H]1CC[C@H](CNc2ccc(S(=O)(=O)NC(=O)c3ccc(N4CCN5CC6=C(c7ccc(Cl)cc7)CC(C)(C)C[C@H]6OCCCOC[C@@H]5C4)cc3N3CCCOc4nc5[nH]ccc5cc43)cc2[N+](=O)[O-])OC1 [Example 13, 4-((4aS,10aR)-14-(4-chlorophenyl)-12,12-dimethyl-1,2,4a,5,8,9,10a,11,13,15-decahydro-7H,12H-benzo[f]pyrazino[2,1-c][1,8]dioxa[4]azacycloundecin-3(4H)-yl)-2-(3,4-dihydro-2H-pyrrolo[3′,2′:5,6]pyrido[2,3-b][1,4]oxazepin-1(7H)-yl)-N-((4-((((2R,5S)-5-methoxytetrahydro-2H-pyran-2-yl)methyl)amino)-3-nitrophenyl)sulfonyl)benzamide]
Ki [1]: 6.8 nM
Ki [2]: 0.35 nM

CC1(C)CC(c2ccc(Cl)cc2)=C2CN3CCN(c4ccc(C(=O)NS(=O)(=O)c5ccc(NC[C@H]6C[C@](O)(CF)C6)c([N+](=O)[O-])c5)c(N5CCCOc6nc7[nH]ccc7cc65)c4)C[C@H]3COCCCO[C@@H]2C1 [Example 16, 4-((4aS,10aR)-14-(4-chlorophenyl)-12,12-dimethyl-1,2,4a,5,8,9,10a,11,13,15-decahydro-7H,12H-benzo[f]pyrazino[2,1-c][1,8]dioxa[4]azacycloundecin-3(4H)-yl)-2-(3,4-dihydro-2H-pyrrolo[3′,2′:5,6]pyrido[2,3-b][1,4]oxazepin-1(7H)-yl)-N-((4-((((1s,3s)-3-(fluoromethyl)-3-hydroxycyclobutyl)methyl)amino)-3-nitrophenyl)sulfonyl)benzamide]
Ki [1]: 15 nM
Ki [2]: 0.297 nM
